# Where two headings read alike, the source gives them in different places. Square brackets hold non-standard residues; d marks the D form. Peptide text beside a SMILES is read from it. dPhe(4-Cl) = N[C@H](Cc1ccc(Cl)cc1)C(=O)O; dPhe(4-F) = N[C@H](Cc1ccc(F)cc1)C(=O)O; d2Nal = N[C@H](Cc1ccc2ccccc2c1)C(=O)O; Hyp = O=C(O)[C@@H]1C[C@@H](O)CN1; 2Thi = N[C@@H](Cc1cccs1)C(=O)O; d2Thi = N[C@H](Cc1cccs1)C(=O)O
# Legend:
# [1] = test system: isolated guinea pig ileum; type: cell-based; set-up: pA2 /GPI: activity class: scale not given here; details: isolated guinea pig ileum; not quantitated
# Description: (§1) The bradykinin antagonists were assayed on isolated rat uterus in natural or induced estrus and on guinea pig ileum, according to the commonly accepted assay methods for bradykinin and related kinins as described by Trautschold (Handbook of Expt. Pharmacol. Vol 25, Springer Verlag, pp. 53-55, 1970) for inhibition of the myotropic activity of bradykinin. The inhibition potencies, as determined according to the commonly accepted manner described by Schild for antagonists of biologically active compounds (Br. J. Pharmacol. 2:189, 1947), and expressed as pA2 values are determined on isolated rat uterus (RUT) and isolated guinea pig ileum (GPI). In the assays, a dose-response curve is determined for the reference substance bradykinin. The dose of bradykinin which produced a half maximal contraction of tissue is the ED50 dose. An amount of bradykinin equivalent to twice the ED50 dose is administered to the tissue 30 seconds after the start of incubation of the tissue with a dose of antagonist. Doses of antagonist are increased in this protocol until pre-incubation with a dose of antagonist reduces the contraction in response to the double ED50 dose of bradykinin to response of a single ED50 dose of bradykinin. The pA2 value represents the negative logarithm of the molar concentration of antagonist necessary to reduce the response of a double ED50 dose of bradykinin to that of an ED50 dose. One unit of pA2 value represents an order of magnitude change in potency. For comparison, the negative log of the dose of BK, the dose which causes half maximal contraction of the tissues, is commonly known as the pD2 value. The pD2 value for bradykinin is 7.9 on the rat uterus and 7.4 on the guinea pig ileum.
# isolated rat uterus = type: cell-based; details: for pA2 /RUT: activity class: not quantitated
# Description: as §1
# rat blood pressure = experiment: effects on blood pressure in the anesthetized rat (RBP), intraaortic and intravenous bolus; type: in vivo; set-up: RBP-IA: activity class / RBP-IV: activity class: scale not given here
# Description: The in vivo effects of bradykinin antagonists on blood pressure in the anesthetized rat are determined according to the assay described by Roblero, Ryan and Stewart (Res. Commun. Pathol. Pharmacol. 6:207, 1973). The antagonists also produce inhibition of the bradykinin response when injected as a bolus admixture of bradykinin plus antagonist by either the ia or iv route of administration.
# [2] = rat blood pressure, intraaortic bolus
# [3] = rat blood pressure, intravenous bolus
compound,measurement,setting,value
"N=C(N)NCCC[C@H](NC(=O)[C@H](Cc1ccccc1)NC(=O)[C@@H](Cc1ccccc1)NC(=O)[C@H](CO)NC(=O)[C@H](Cc1ccccc1)NC(=O)CNC(=O)[C@@H]1C[C@@H](O)CN1C(=O)[C@@H]1CCCN1C(=O)[C@H](N)Cc1ccc(F)cc1)C(=O)O [Example 11, FDF-Pro-Hyp-Gly-Phe-Ser-DPhe-Phe-Arg] (H-[dPhe(4-F)]P[Hyp]GFS[dF]FR-OH)",pA2 /GPI: activity class,[1],0
"N=C(N)NCCC[C@H](NC(=O)[C@H](Cc1ccccc1)NC(=O)[C@@H](Cc1ccccc1)NC(=O)[C@H](CO)NC(=O)[C@H](Cc1ccccc1)NC(=O)CNC(=O)[C@@H]1C[C@@H](O)CN1C(=O)[C@@H]1CCCN1C(=O)[C@H](N)Cc1ccc(Cl)cc1)C(=O)O [Example 3, CDF-Pro-Hyp-Gly-Phe-Ser-DPhe-Phe-Arg] (H-[dPhe(4-Cl)]P[Hyp]GFS[dF]FR-OH)",pA2 /GPI: activity class,[1],0
"N=C(N)NCCC[C@@H](N)C(=O)N[C@@H](CCCNC(=N)N)C(=O)N1CCC[C@H]1C(=O)N1CCC[C@H]1C(=O)NCC(=O)N[C@@H](Cc1cccs1)C(=O)N[C@@H](CO)C(=O)N[C@H](Cc1ccccc1)C(=O)N[C@@H](Cc1cccs1)C(=O)N[C@H](CCCNC(=N)N)C(N)=O [Example 57, DArg-Arg-Pro-Pro-Gly-Thi-Ser-DPhe-Thi-DArf-NH2] (H-[dR]RPPG[2Thi]S[dF][2Thi][dR]-NH2)",pA2 /RUT: agonist potency as percent of BK potency,isolated rat uterus; isolated rat uterus,0.003%
"N=C(N)NCCC[C@H](NC(=O)[C@H](Cc1cccs1)NC(=O)[C@@H](Cc1ccccc1)NC(=O)[C@H](CO)NC(=O)[C@H](Cc1cccs1)NC(=O)CNC(=O)[C@@H]1CCCN1C(=O)[C@@H]1CCCN1C(=O)[C@H](N)Cc1ccc2ccccc2c1)C(=O)O [Example 22, DNal-Pro-Pro-Gly-Thi-Ser-DPhe-Thi-Arg] (H-[d2Nal]PPG[2Thi]S[dF][2Thi]R-OH)",pA2 /RUT (antagonist potency),isolated rat uterus,5.6
"CC[C@H](C)[C@H](NC(=O)[C@H](CCCNC(=N)N)NC(=O)[C@H](Cc1ccccc1)NC(=O)[C@@H](Cc1ccccc1)NC(=O)[C@H](CO)NC(=O)[C@H](Cc1ccccc1)NC(=O)CNC(=O)[C@@H]1CCCN1C(=O)[C@@H]1CCCN1C(=O)[C@@H](N)CCCNC(=N)N)C(=O)N[C@@H](Cc1ccc(O)cc1)C(=O)O [Example 63, Arg-Pro-Pro-Gly-Phe-Ser-DPhe-Phe-Arg-Ile-Tyr] (H-RPPGFS[dF]FRIY-OH)",pA2 /RUT: agonist potency as percent of BK potency,isolated rat uterus; isolated rat uterus,0.6%
same,RBP-IA: agonist potency as percent of BK potency,rat blood pressure; [2],0.2%
same,RBP-IV: agonist potency as percent of BK potency,rat blood pressure; [3],2%
same,% DESTR (metabolic breakdown of BK-like agonists in RBP assay),rat blood pressure; relative to BK = 100%,70%
"N=C(N)NCCC[C@H](NC(=O)[C@H](Cc1ccccc1)NC(=O)[C@@H](Cc1ccccc1)NC(=O)[C@H](CO)NC(=O)[C@H](Cc1ccccc1)NC(=O)CNC(=O)[C@@H]1C[C@@H](O)CN1C(=O)[C@@H]1CCCN1C(=O)[C@H](N)Cc1ccc(O)cc1)C(=O)O [Example 9, DTyr-Pro-Hyp-Gly-Phe-Ser-DPhe-Phe-Arg] (H-[dY]P[Hyp]GFS[dF]FR-OH)",pA2 /GPI: activity class,[1],0
"N=C(N)NCCC[C@H](NC(=O)[C@H](CCCCN)NC(=O)[C@@H](N)CCCCN)C(=O)N1CCC[C@H]1C(=O)N1CCC[C@H]1C(=O)NCC(=O)N[C@@H](Cc1cccs1)C(=O)N[C@@H](CO)C(=O)N[C@H](Cc1ccccc1)C(=O)N[C@@H](Cc1cccs1)C(=O)N[C@H](CCCNC(=N)N)C(N)=O [Example 58, Lys-Lys-Arg-Pro-Pro-Gly-Thi-Ser-DPhe-Thi-DArg-NH2] (H-KKRPPG[2Thi]S[dF][2Thi][dR]-NH2)",pA2 /RUT: agonist potency as percent of BK potency,isolated rat uterus,0.02%
same,% DESTR (metabolic breakdown of BK-like agonists in RBP assay),"rat blood pressure; rat, in vivo",60%
same,RBP-IA: agonist potency as percent of BK potency,"rat blood pressure; rat, in vivo",0.2%
same,RBP-IV: agonist potency as percent of BK potency,"rat blood pressure; rat, in vivo, iv",3%
"N=C(N)NCCC[C@H](NC(=O)[C@H](Cc1cccs1)NC(=O)[C@@H](Cc1ccccc1)NC(=O)[C@H](CO)NC(=O)[C@H](Cc1cccs1)NC(=O)CNC(=O)[C@@H]1CCCN1C(=O)[C@@H]1CCCN1C(=O)[C@@H](N)CCCNC(=N)N)C(N)=O [Example 51, Arg-Pro-Pro-Gly-Thi-Ser-DPhe-Thi-Arg-NH2] (H-RPPG[2Thi]S[dF][2Thi]R-NH2)",pA2 /RUT: agonist potency as percent of BK potency,isolated rat uterus,0.02%
same,% DESTR (metabolic breakdown of BK-like agonists in RBP assay),"rat blood pressure; rat, in vivo",52%
same,RBP-IA: agonist potency as percent of BK potency,"rat blood pressure; rat, in vivo",0.05%
same,RBP-IV: agonist potency as percent of BK potency,"rat blood pressure; rat, in vivo, iv",2%
"N=C(N)NCCC[C@H](NC(=O)[C@H](Cc1ccccc1)NC(=O)[C@@H](Cc1cccs1)NC(=O)[C@H](CO)NC(=O)[C@H](Cc1ccccc1)NC(=O)CNC(=O)[C@@H]1C[C@@H](O)CN1C(=O)[C@@H]1CCCN1C(=O)[C@H](N)Cc1cccs1)C(=O)O [Example 34, DThi Pro-Hyp-Gly-Phe-Ser-DThi-Phe-Arg] (H-[d2Thi]P[Hyp]GFS[d2Thi]FR-OH)",pA2 /RUT: activity class,isolated rat uterus; isolated rat uterus,0
"N=C(N)NCCC[C@H](NC(=O)[C@H](Cc1cccs1)NC(=O)[C@@H](Cc1ccccc1)NC(=O)[C@H](CO)NC(=O)[C@H](Cc1cccs1)NC(=O)CNC(=O)[C@@H]1CCCN1C(=O)[C@@H]1CCCN1C(=O)[C@H](CCCNC(=N)N)NC(=O)[C@H](CCCCN)NC(=O)[C@@H](N)CCCCN)C(N)=O [Example 54, Lys-Lys-Arg-Pro-Pro-Gly-Thi-Ser-DPhe-Thi-Arg-NH2] (H-KKRPPG[2Thi]S[dF][2Thi]R-NH2)",pA2 /RUT: agonist potency as percent of BK potency,isolated rat uterus,0.02%
"N=C(N)NCCC[C@@H](N)C(=O)N[C@H](Cc1ccc(Cl)cc1)C(=O)N1CCC[C@H]1C(=O)N1CCC[C@H]1C(=O)NCC(=O)N[C@@H](Cc1ccccc1)C(=O)N[C@@H](CO)C(=O)N[C@H](Cc1cccs1)C(=O)N[C@@H](Cc1ccccc1)C(=O)N[C@@H](CCCNC(=N)N)C(=O)O [Example 7, DArg-CDF-Pro-Pro-Gly-Phe-Ser-DThi-Phe-Arg] (H-[dR][dPhe(4-Cl)]PPGFS[d2Thi]FR-OH)",pA2 /RUT: activity class,isolated rat uterus; isolated rat uterus,0
same,RBP-IA: activity class,rat blood pressure; [2],0
same,RBP-IV: activity class,rat blood pressure; [3],0
"N=C(N)NCCC[C@H](NC(=O)[C@H](Cc1cccs1)NC(=O)[C@@H](Cc1ccccc1)NC(=O)[C@H](CO)NC(=O)[C@H](Cc1cccs1)NC(=O)CNC(=O)[C@@H]1CCCN1C(=O)[C@@H]1CCCN1C(=O)[C@@H](Cc1ccc2ccccc2c1)NC(=O)[C@H](N)Cc1ccc2ccccc2c1)C(=O)O [Example 25, DNal-DNal-Pro-Pro-Gly-Thi-Ser-DPhe-Thi-Arg] (H-[d2Nal][d2Nal]PPG[2Thi]S[dF][2Thi]R-OH)",pA2 /RUT (antagonist potency),"isolated rat uterus; isolated rat uterus, number of tissues in parentheses",5.6
"N=C(N)NCCC[C@H](N)C(=O)N1CCC[C@H]1C(=O)N1CCC[C@H]1C(=O)NCC(=O)N[C@@H](Cc1cccs1)C(=O)N[C@@H](CO)C(=O)N[C@H](Cc1ccccc1)C(=O)N[C@@H](Cc1cccs1)C(=O)N[C@H](CCCNC(=N)N)C(N)=O [Example 55, Arg-Pro-Pro-Gly-Thi-Ser-DPhe-Thi-DArg-NH2] (H-RPPG[2Thi]S[dF][2Thi][dR]-NH2)",pA2 /RUT: agonist potency as percent of BK potency,isolated rat uterus,0.01%
same,% DESTR (metabolic breakdown of BK-like agonists in RBP assay),"rat blood pressure; rat, in vivo",61%
same,RBP-IA: agonist potency as percent of BK potency,"rat blood pressure; rat, in vivo",0.1%
same,RBP-IV: agonist potency as percent of BK potency,"rat blood pressure; rat, in vivo, iv",0.9%
"CC[C@H](C)[C@H](NC(=O)[C@H](CCCNC(=N)N)NC(=O)[C@H](Cc1cccs1)NC(=O)[C@@H](Cc1ccccc1)NC(=O)[C@H](CO)NC(=O)[C@H](Cc1cccs1)NC(=O)CNC(=O)[C@@H]1CCCN1C(=O)[C@@H]1CCCN1C(=O)[C@@H](N)CCCNC(=N)N)C(=O)N[C@@H](Cc1ccc(O)cc1)C(=O)O [Example 65, Arg-Pro-Pro-Gly-Thi-Ser-DPhe-Thi-Arg-Ile-Tyr] (H-RPPG[2Thi]S[dF][2Thi]RIY-OH)",pA2 /RUT: agonist potency as percent of BK potency,isolated rat uterus; isolated rat uterus,0.5%
same,RBP-IA: agonist potency as percent of BK potency,rat blood pressure; [2],0.06%
same,RBP-IV: agonist potency as percent of BK potency,rat blood pressure; [3],6%
same,% DESTR (metabolic breakdown of BK-like agonists in RBP assay),rat blood pressure; relative to BK = 100%,0%

# — patent US4923963A, “Bradykinin antagonist peptides” (Nova Technology Limited Partnership, priority 1987, dated 1990)
